Measured values as given in article PMC11364095 (Science Advances, 2024).

System: E. coli ATCC 35218
Experiment: Resistance development assay
Format: cell-based
Details: after 16 passages, serial passaging in sub-MIC concentrations

| Molecule | fold increase of MIC against E. coli ATCC 35218 [fold] |
| --- | --- |
| colistin | 128 |
| O=C(O)c1cn(C2CC2)c2cc(N3CCNCC3)c(F)cc2c1=O [ciprofloxacin] | 256 |
